Test results from PubChem BioAssay AID1259407 (Chemical Carcinogenesis Research Information System (CCRIS), 2018).
Active and inactive are the calls of the source. The rule behind the calls is not given here.

Test system: CCRIS mutagenicity, Ames/micronucleus/aberration tests
Experiment: CCRIS mutagenicity studies
[1] = Test System: AMES SALMONELLA TYPHIMURIUM, Strain/Indicator: TA100, Metabolic Activation: NONE, Method: STANDARD PLATE
[2] = Test System: AMES SALMONELLA TYPHIMURIUM, Strain/Indicator: TA98, Metabolic Activation: NONE, Method: STANDARD PLATE
[3] = Test System: AMES SALMONELLA TYPHIMURIUM, Strain/Indicator: TA1535, Metabolic Activation: NONE, Method: STANDARD PLATE
[4] = Test System: AMES SALMONELLA TYPHIMURIUM, Strain/Indicator: TA1537, Metabolic Activation: NONE, Method: STANDARD PLATE

SMILES: COc1cc(Oc2ccc(Cl)cc2Cl)ccc1[N+](=O)[O-]
- mutagenic call (Test System: AMES SALMONELLA TYPHIMURIUM, Strain/Indicator: TA98, Metabolic Activation: S-9, Method: STANDARD PLATE): inactive; negative
- mutagenic call [1]: active; positive
- mutagenic call (Test System: AMES SALMONELLA TYPHIMURIUM, Strain/Indicator: TA100, Metabolic Activation: S-9, Method: STANDARD PLATE): inactive; negative
- mutagenic call (Test System: AMES SALMONELLA TYPHIMURIUM, Strain/Indicator: TA100, Metabolic Activation: S-9 MIX, Method: STANDARD PLATE): inactive; negative
- mutagenic call (Test System: AMES SALMONELLA TYPHIMURIUM, Strain/Indicator: YG1021, Metabolic Activation: NONE, Method: PREINCUBATION): active; positive
- mutagenic call (Test System: AMES SALMONELLA TYPHIMURIUM, Strain/Indicator: YG1021, Metabolic Activation: RAT, LIVER, S-9, PCB, Method: PREINCUBATION): active; positive
- mutagenic call (Test System: AMES SALMONELLA TYPHIMURIUM, Strain/Indicator: YG1021, Metabolic Activation: S-9, Method: STANDARD PLATE): inactive; negative
- mutagenic call (Test System: AMES SALMONELLA TYPHIMURIUM, Strain/Indicator: YG1024, Metabolic Activation: S-9, Method: STANDARD PLATE): inactive; negative
- mutagenic call (Test System: AMES SALMONELLA TYPHIMURIUM, Strain/Indicator: YG1026, Metabolic Activation: NONE, Method: PREINCUBATION): active; positive
- mutagenic call (Test System: AMES SALMONELLA TYPHIMURIUM, Strain/Indicator: YG1026, Metabolic Activation: RAT, LIVER, S-9, PCB, Method: PREINCUBATION): active; positive
- mutagenic call (Test System: AMES SALMONELLA TYPHIMURIUM, Strain/Indicator: YG1026, Metabolic Activation: S-9, Method: STANDARD PLATE): inactive; negative
- mutagenic call (Test System: AMES SALMONELLA TYPHIMURIUM, Strain/Indicator: YG1029, Metabolic Activation: S-9, Method: STANDARD PLATE): inactive; negative

SMILES: FC(Cl)C(F)(F)C(F)(F)Cl (centres undefined)
- mutagenic call [2]: inactive; negative
- mutagenic call (Test System: AMES SALMONELLA TYPHIMURIUM, Strain/Indicator: TA98, Metabolic Activation: RAT LIVER S-9, PHENOBARBITAL, 5,6-BENZOFLAVONE, Method: STANDARD PLATE): inactive; negative
- mutagenic call [1]: inactive; negative
- mutagenic call (Test System: AMES SALMONELLA TYPHIMURIUM, Strain/Indicator: TA100, Metabolic Activation: RAT LIVER S-9, PHENOBARBITAL, 5,6-BENZOFLAVONE, Method: STANDARD PLATE): inactive; negative
- mutagenic call [3]: inactive; negative
- mutagenic call (Test System: AMES SALMONELLA TYPHIMURIUM, Strain/Indicator: TA1535, Metabolic Activation: RAT LIVER S-9, PHENOBARBITAL, 5,6-BENZOFLAVONE, Method: STANDARD PLATE): inactive; negative
- mutagenic call [4]: inactive; negative
- mutagenic call (Test System: AMES SALMONELLA TYPHIMURIUM, Strain/Indicator: TA1537, Metabolic Activation: RAT LIVER S-9, PHENOBARBITAL, 5,6-BENZOFLAVONE, Method: STANDARD PLATE): inactive; negative
- mutagenic call (Test System: ESCHERICHIA COLI, Strain/Indicator: WP2 UVR A, Metabolic Activation: NONE, Method: STANDARD PLATE): inactive; negative
- mutagenic call (Test System: ESCHERICHIA COLI, Strain/Indicator: WP2 UVR A, Metabolic Activation: RAT LIVER S-9, PHENOBARBITAL, 5,6-BENZOFLAVONE, Method: STANDARD PLATE): inactive; negative
- mutagenic call (Test System: UDS RAT HEPATOCYTES IN VIVO, Strain/Indicator: THYMIDINE INCORPORATION, Metabolic Activation: NONE, Method: INHALATION (6HR, NOSE-ONLY, 2-OR 16-HR HARVEST)/AUTORADIOGRAPHY): inactive; negative

SMILES: CCC(C)(C)OC
- mutagenic call [2]: inactive; negative
- mutagenic call (Test System: AMES SALMONELLA TYPHIMURIUM, Strain/Indicator: TA98, Metabolic Activation: RAT, LIVER, S-9, AROCLOR 1254, Method: STANDARD PLATE): inactive; negative
- mutagenic call [1]: inactive; negative
- mutagenic call (Test System: AMES SALMONELLA TYPHIMURIUM, Strain/Indicator: TA100, Metabolic Activation: RAT, LIVER, S-9, AROCLOR 1254, Method: STANDARD PLATE): inactive; negative
- mutagenic call [3]: inactive; negative
- mutagenic call (Test System: AMES SALMONELLA TYPHIMURIUM, Strain/Indicator: TA1535, Metabolic Activation: RAT, LIVER, S-9, AROCLOR 1254, Method: STANDARD PLATE): inactive; negative
- mutagenic call [4]: inactive; negative
- mutagenic call (Test System: AMES SALMONELLA TYPHIMURIUM, Strain/Indicator: TA1537, Metabolic Activation: RAT, LIVER, S-9, AROCLOR 1254, Method: STANDARD PLATE): inactive; negative
- mutagenic call (Test System: AMES SALMONELLA TYPHIMURIUM, Strain/Indicator: TA1538, Metabolic Activation: NONE, Method: STANDARD PLATE): inactive; negative
- mutagenic call (Test System: AMES SALMONELLA TYPHIMURIUM, Strain/Indicator: TA1538, Metabolic Activation: RAT, LIVER, S-9, AROCLOR 1254, Method: STANDARD PLATE): inactive; negative

SMILES: O=[N+]([O-])c1cc([N+](=O)[O-])c2cccc3c2c1-c1ccccc1-3
- mutagenic call (Test System: AMES SALMONELLA TYPHIMURIUM, Strain/Indicator: TA98(1,8-DNP6), Metabolic Activation: NONE, Method: STANDARD PLATE): active; positive
- mutagenic call (Test System: AMES SALMONELLA TYPHIMURIUM, Strain/Indicator: TA98(NR), Metabolic Activation: NONE, Method: STANDARD PLATE): active; positive
- mutagenic call [2]: active; positive

SMILES: N#C/C(=C/C=C/c1ccccc1[N+](=O)[O-])c1ccc(Br)cc1
- mutagenic call (Test System: AMES SALMONELLA TYPHIMURIUM, Strain/Indicator: TA97A, Metabolic Activation: NONE, Method: STANDARD PLATE): active; positive
- mutagenic call [1]: active; positive

SMILES: CCc1cccc2c(CCO)c[nH]c12
- mutagenic call [2]: inactive; negative
- mutagenic call (Test System: AMES SALMONELLA TYPHIMURIUM, Strain/Indicator: TA98, Metabolic Activation: RAT, LIVER, S-9, Method: STANDARD PLATE): inactive; negative
- mutagenic call [1]: inactive; negative
- mutagenic call (Test System: AMES SALMONELLA TYPHIMURIUM, Strain/Indicator: TA100, Metabolic Activation: RAT, LIVER, S-9, Method: STANDARD PLATE): inactive; negative
- mutagenic call [3]: inactive; negative
- mutagenic call (Test System: AMES SALMONELLA TYPHIMURIUM, Strain/Indicator: TA1535, Metabolic Activation: RAT, LIVER, S-9, Method: STANDARD PLATE): inactive; negative
- mutagenic call [4]: inactive; negative
- mutagenic call (Test System: AMES SALMONELLA TYPHIMURIUM, Strain/Indicator: TA1537, Metabolic Activation: RAT, LIVER, S-9, Method: STANDARD PLATE): inactive; negative
- mutagenic call (Test System: E. COLI, Strain/Indicator: WP2 UVRA, Metabolic Activation: NONE, Method: STANDARD PLATE): inactive; negative
- mutagenic call (Test System: E. COLI, Strain/Indicator: WP2 UVRA, Metabolic Activation: RAT, LIVER, S-9, Method: STANDARD PLATE): inactive; negative

SMILES: CC(C)(C)OC(=O)CN=[N+]=[N-]
- mutagenic call (Test System: AMES SALMONELLA TYPHIMURIUM, Strain/Indicator: TA100, Metabolic Activation: RAT, LIVER, S-9, PCB, Method: PREINCUBATION): active; positive

SMILES: ONc1ccccc1-c1ccccc1
- mutagenic call [2]: inactive; negative
- mutagenic call [1]: active; positive

SMILES: CC(C)Oc1ccccc1OC(=O)N(C)N=O
- mutagenic call (End Point: In vitro chromosomal aberrations, Test System: Chinese hamster ovary (CHO-W8) cells, Metabolic Activation: None): active; positive (structural changes)
- mutagenic call (Test System: CHINESE HAMSTER V-79, Strain/Indicator: V-79 (HPRT)/6-THIOGUANINE, Metabolic Activation: NONE): active; positive
- mutagenic call (Test System: E. COLI WP2, Strain/Indicator: WP2, Metabolic Activation: NONE, Method: STANDARD PLATE): active; positive

SMILES: CC(=O)OCCCCONC(=O)c1ccccc1
- mutagenic call [2]: active; positive
- mutagenic call [1]: active; positive
- mutagenic call (Test System: AMES SALMONELLA TYPHIMURIUM, Strain/Indicator: TA100, Metabolic Activation: RAT,S-9, AROCLOR, Method: STANDARD PLATE): active; positive

SMILES: C[Si](C)(C)CN(N=O)C(N)=O
- mutagenic call (Test System: AMES SALMONELLA TYPHIMURIUM, Strain/Indicator: TA100, Metabolic Activation: NONE, Method: PREINCUBATION): active; positive
- mutagenic call (Test System: CHINESE HAMSTER V-79, Strain/Indicator: V-79/OUABAIN, Metabolic Activation: NONE): active; positive
- mutagenic call (Test System: E. COLI, Strain/Indicator: H/R30R, Metabolic Activation: NONE, Method: PREINCUBATION): active; positive
- mutagenic call (Test System: E. COLI, Strain/Indicator: HS30R UVRA, Metabolic Activation: NONE, Method: PREINCUBATION): active; positive
- mutagenic call (Test System: E. COLI, Strain/Indicator: NG30 RECA, Metabolic Activation: NONE, Method: PREINCUBATION): active; positive
- mutagenic call (Test System: E. COLI, Strain/Indicator: O16 POLA, Metabolic Activation: NONE, Method: PREINCUBATION): active; positive

SMILES: Brc1ccc(CN2[C@@H]3c4ccccc4-c4ccccc4[C@@H]32)cc1 (some centres undefined)
- mutagenic call [1]: active; positive
